The term IC50 denotes the concentration at which inhibition is half-maximal.

Each structure is given as a SMILES string.

Among the data in US9586931B2 (Merck Sharp & Dohme Corp., priority 2012, dated 2017) are IC50 values, retold here.

For this test, the target named is T1, recombinant human GST-Syk (Homo sapiens, UniProt P43405).
T1 construct: purchased Carna Biosciences 08-176
The test can be described thus: Homogeneous Time-Resolved Fluorescence (HTRF) assay for the recombinant human Syk enzyme. Type of test: biochemical. As to conditions: recombinant human GST-Syk 5 pM, ATP 25 μM, 10-dose titration 10 μM to 0.508 nM; read-out: rhSYK Activity IC50. In short, it runs like this: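 Detection used time-resolved fluorescence 30 min after adding a quench mix (40 mM EDTA, 15 mM Tris pH 7.5, 0.01% Tween 20) containing 2 nM Europium anti-pTyr antibody and 70 nM streptavidin-APC. This followed 45 min of room-temperature peptide phosphorylation by recombinant GST-tagged human Syk.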
For orientation: TR-FRET usually uses a lanthanide donor and a delayed reading to cut background.
`Cc1cc(Nc2cc(C(F)(F)F)ccn2)nc(-c2cn(CC(O)CN)nn2)c1` (centres unmarked) [Example 4.22, 1-amino-3-[4-(4-methyl-6-{[4-(trifluoromethyl)pyridin-2-yl]amino}pyridin-2-yl)-1H-1,2,3-triazol-1-yl]propan-2-ol]: the 50% inhibitory concentration (IC50) was determined as 3 nM.

Turning to `Cc1cc(Nc2cc(C(F)(F)F)ccn2)nc(-c2cn(C3CCC(C(=O)O)C(C)(C)C3)nn2)c1` (single isomer, unassigned) [Example 3.7, (R or S) 2,2-dimethyl-4-[4-(4-methyl-6-{[4-(trifluoromethyl)pyridin-2-yl]amino}pyridin-2-yl)-1H-1,2,3-triazol-1-yl]cyclohexanecarboxylic acid], the half-maximal inhibitory concentration (IC50) is 3.7 nM.

As to `Cc1cc(Nc2cc(C(F)(F)F)ccn2)nc(-c2cn(CC3(O)CCC(C(=O)O)C(C)(C)C3)nn2)c1` (centres unmarked) [Example 3.5, 4-hydroxy-2,2-dimethyl-4-{[4-(4-methyl-6-{[4-(trifluoromethyl)pyridin-2-yl]amino}pyridin-2-yl)-1H-1,2,3-triazol-1-yl]methyl}cyclohexanecarboxylic acid], the half-maximal inhibitory concentration (IC50) turned out to be 70.4 nM.

For `COC(=O)C1CCC(n2cc(-c3cc(C)cc(Nc4cc(C(F)(F)F)ccn4)n3)nn2)c2ccccc21` (racemic) [Example 5.25, methyl 4-[4-(4-methyl-6-{[4-(trifluoromethyl)pyridin-2-yl]amino}pyridin-2-yl)-1H-1,2,3-triazol-1-yl]-1,2,3,4-tetrahydronaphthalene-1-carboxylate], the half-inhibitory concentration (IC50) turned out to be 525 nM.

Consider `Cc1cc(Nc2cc(C(F)(F)F)ccn2)nc(-c2cn(C(C)C(=O)NCCc3ccccc3Oc3ccccc3)nn2)c1` (centres unmarked) [Example 1.42, 2-[4-(4-methyl-6-{[4-(trifluoromethyl)pyridin-2-yl]amino}pyridin-2-yl)-1H-1,2,3-triazol-1-yl]-N-[2-(2-phenoxyphenyl)ethyl]propanamide], for which the IC50 was 912 nM.

For `Cc1cc(Nc2nccc(C(F)(F)F)n2)cc(-c2cn(CC(C)(O)CO)nn2)c1` (single isomer, unassigned) [Example 21.3, 2-methyl-3-[4-(3-methyl-5-{[4-(trifluoromethyl)pyrimidin-2-yl]amino}phenyl)-1H-1,2,3-triazol-1-yl]propane-1,2-diol], the half-inhibitory concentration (IC50) is 7 nM.

As for `CC/C=C/Cn1cc(-c2cc(C)cc(Nc3cc(C(F)(F)F)ccn3)n2)nn1` [Example 5.31, 4-methyl-6-{1-[(2E)-pent-2-en-1-yl]-1H-1,2,3-triazol-4-yl}-N-[4-(trifluoromethyl)pyridin-2-yl]pyridin-2-amine], the half-maximal inhibitory concentration (IC50) was determined as 48.6 nM.

Regarding `Cc1cc(Nc2cc(C(F)(F)F)ccn2)nc(-c2cn(CC3(N)CC3)nn2)c1` [Example 5.112, 6-{1-[(1-aminocyclopropyl)methyl]-1H-1,2,3-triazol-4-yl}-4-methyl-N-[4-(trifluoromethyl)pyridin-2-yl]pyridin-2-amine], the half-inhibitory concentration (IC50) came to 17 nM.

Take `Cc1cc(Nc2nccc(C(F)(F)F)n2)cc(-c2cn(CCCN3CCOCC3)nn2)c1` [Example 5.51, N-{3-mcthyl-5-[1-(3-morpholin-4-ylpropyl)-1H-1,2,3-triazol-4-yl]phenyl}-4-(trifluoromethyl)pyrimidin-2-amine]: the half-inhibitory concentration (IC50) turned out to be 177 nM.

With `Cc1cc(Nc2nccc(C(F)(F)F)n2)cc(-n2cc([Si](C)(C)C)nn2)c1` [Example 15.12, N-{3-methyl-5-[4-(trimethylsilyl)-1H-1,2,3-triazol-1-yl]phenyl}-4-(trifluoromethyl)pyrimidin-2-amine], the IC50 was determined as 284 nM.

In the case of `Cc1cc(Nc2cc(C(F)(F)F)ccn2)nc(-c2nnc[nH]2)c1` [Example 16.2, 4-methyl-6-(4H-1,2,4-triazol-3-yl)-N-[4-(trifluoromethyl)pyridin-2-yl]pyridin-2-amine], the IC50 came to 328 nM.

For `Cc1cc(Nc2ncc(F)c(C(F)F)n2)cc(-c2cn(CC3OC(=O)NC34CC4)nn2)c1` (single isomer, unassigned) [Example 7.33, 7-{[4-(3-{[4-(difluoromethyl)-5-fluoropyrimidin-2-yl]amino}-5-methylphenyl)-1H-1,2,3-triazol-1-yl]methyl}-6-oxa-4-azaspiro[2.4]heptan-5-one], the IC50 turned out to be 11.1 nM.

On to `Cc1cc(Nc2cc(C(F)(F)F)ccn2)nc(-c2cn(CC(=O)N3CCCC3)nn2)c1` [Example 5.87, 4-methyl-6-[1-(2-oxo-2-pyrrolidin-1-ylethyl)-1H-1,2,3-triazol-4-yl]-N-[4-(trifluoromethyl)pyridin-2-yl]pyridin-2-amine], for which the IC50 came out at 81.2 nM.

Take `Cc1cc(Nc2cc(C(F)(F)F)ccn2)nc(-c2cn(C(C)C(O)CC#N)nn2)c1` (centres unmarked) [Example 4.10, 3-hydroxy-4-[4-(4-methyl-6-{[4-(trifluoromethyl)pyridin-2-yl]amino}pyridin-2-yl)-1H-1,2,3-triazol-1-yl]pentanenitrile]: the IC50 stood at 5.7 nM.

On to `Cc1cc(Nc2nccc(C(F)(F)F)n2)cc(-c2cn(CCC(N)=O)nn2)c1` [Example 5.75, 3-[4-(3-methyl-5-{[4-(trifluoromethyl)pyrimidin-2-yl]amino}phenyl)-1H-1,2,3-triazol-1-yl]propanamide], for which the IC50 was determined as 31.6 nM.

Turning to `COCC(C)(C)NC(=O)Cn1cc(-c2cc(C)cc(Nc3nccc(C(F)(F)F)n3)c2)nn1` [Example 5.67, N-(2-methoxy-1,1-dimethylethyl)-2-[4-(3-methyl-5-{[4-(trifluoromethyl)pyrimidin-2-yl]amino}phenyl)-1H-1,2,3-triazol-1-yl]acetamide], the IC50 came out at 296 nM.

On to `Cc1cc(Nc2nccc(C(F)(F)F)n2)cc(-n2cc(CC(C)(C)C(=O)O)nn2)c1` [Example 15.13, 2,2-dimethyl-3-[1-(3-methyl-5-{[4-(trifluoromethyl)pyrimidin-2-yl]amino}phenyl)-1H-1,2,3-triazol-4-yl]propanoic acid], for which the IC50 was 88 nM.

As for `Cc1cc(Nc2cc(C(F)(F)F)ccn2)nc(-c2cn(CCS(C)(=O)=O)nn2)c1` [Example 5.96, 4-methyl-6-{1-[2-(methylsulfonyl)ethyl]-1H-1,2,3-triazol-4-yl}-N-[4-(trifluoromethyl)pyridin-2-yl]pyridin-2-amine], the half-maximal inhibitory concentration (IC50) stood at 47.1 nM.

For the compound `Cc1cc(Nc2nccc(C(F)(F)F)n2)cc(-c2cn(C[C@@H](C)CO)nn2)c1` [Example 5.73, (2R)-2-methyl-3-[4-(3-methyl-5-{[4-(trifluoromethyl)pyrimidin-2-yl]amino}phenyl)-1H-1,2,3-triazol-1-yl]propan-1-ol], the IC50 was found to be 39.2 nM.

In the case of `Cc1cc(Nc2nccc(C)n2)cc(-c2cn(C[C@](C)(O)CO)nn2)c1` (single isomer, unassigned) [Example 21.1, 2-Methyl-3-(4-(3-methyl-5-((4-methylpyrimidin-2-yl)amino)phenyl)-1H-1,2,3-triazol-1-yl)propane-1,2-diol], the IC50 was 6.2 nM.

`Cc1cc(Nc2cc(C(F)F)ccn2)nc(-c2cn(CC(C)(O)C(C)(C)O)nn2)c1` (centres unmarked) [Example 21.9, 1-[4-(6-{[4-(difluoromethyl)pyridin-2-yl]amino}-4-methylpyridin-2-yl)-1H-1,2,3-triazol-1-yl]-2,3-dimethylbutane-2,3-diol]: the IC50 came out at 13.5 nM.

Turning to `Cc1cc(Nc2cc(C(F)(F)F)ccn2)nc(-c2cn(C(C)C(=O)NCCc3cccc4ccccc34)nn2)c1` (centres unmarked) [Example 1.44, 2-[4-(4-methyl-6-{[4-(trifluoromethyl)pyridin-2-yl]amino}pyridin-2-yl)-1H-1,2,3-triazol-1-yl]-N-(2-naphthalen-1-ylethyl)propanamide], the half-maximal inhibitory concentration (IC50) was 626 nM.

Turning to `Cc1cc(Nc2cc(C(C)F)ccn2)nc(-c2cn(CC(C)(O)C(C)(C)O)nn2)c1` (centres unmarked) [Example 21.17, 1-[4-(6-{[4-(1-fluoroethyl)pyridin-2-yl]amino}-4-methylpyridin-2-yl)-1H-1,2,3-triazol-1-yl]-2,3-dimethylbutane-2,3-diol], the IC50 was 23.1 nM.

As for `Cc1cc(Nc2cc(C(F)(F)F)ccn2)nc(-c2cn(C3CCCCC(O)C3O)nn2)c1` (single isomer, unassigned) [Example 10.6, 3-[4-(4-methyl-6-{[4-(trifluoromethyl)pyridin-2-yl]amino}pyridin-2-yl)-1H-1,2,3-triazol-1-yl]cycloheptane-1,2-diol], the half-maximal inhibitory concentration (IC50) amounted to 4.7 nM.

Take `Cc1cc(Nc2cc(C(F)(F)F)ccn2)nc(-c2cn(CC(O)C(C)(C)C)nn2)c1` (centres unmarked) [Example 4.25, 3,3-dimethyl-1-[4-(4-methyl-6-{[4-(trifluoromethyl)pyridin-2-yl]amino}pyridin-2-yl)-1H-1,2,3-triazol-1-yl]butan-2-ol]: the 50% inhibitory concentration (IC50) worked out at 12.1 nM.

Take `CC(O)(CO)Cn1cc(-c2cccc(Nc3nccc(C(F)(F)F)n3)c2)nn1` (single isomer, unassigned) [Example 21.5, 2-methyl-3-[4-(3-{[4-(trifluoromethyl)pyrimidin-2-yl]amino}phenyl)-1H-1,2,3-triazol-1-yl]propane-1,2-diol]: the IC50 worked out at 47 nM.

As to `Cc1cc(Nc2cc(C(F)(F)F)ccn2)nc(-c2cn(CC3(O)CCOC3)nn2)c1` (racemic) [Example 5.13, 3-{[4-(4-methyl-6-{[4-(trifluoromethyl)pyridin-2-yl]amino}pyridin-2-yl)-1H-1,2,3-triazol-1-yl]methyl}tetrahydrofuran-3-ol], the IC50 came to 11.7 nM.

With `Cc1cc(Nc2cc(OCCO)ccn2)nc(-c2cn(C(C)c3ccc(C(=O)O)cc3)nn2)c1` (centres unmarked) [Example 2.4, 4-{1-[4-(6-{[4-(2-hydroxyethoxy)pyridin-2-yl]amino}-4-methylpyridin-2-yl)-1H-1,2,3-triazol-1-yl]ethyl}benzoic acid], the IC50 stood at 28.1 nM.

As to `Cc1cc(Nc2nccc(C(F)F)n2)cc(-c2cn(C(C)C(C)(O)CO)nn2)c1` (single isomer, unassigned) [Example 30.2, 3-(4-(3-((4-(Difluoromethyl)pyrimidin-2-yl)amino)-5-methylphenyl)-1H-1,2,3-triazol-1-yl)-2-methylbutane-1,2-diol], the half-maximal inhibitory concentration (IC50) was found to be 6.3 nM.
